Source: patent US7094869B2, “Low molecular weight peptidomimetic growth hormone secretagogues” (Genentech, Inc., priority 1994, dated 2006)
pEC50: −log10 of the molar value. Non-standard residues stand in square brackets, D forms with d. Residues, ends and D or L forms follow the SMILES beside them. *: point of attachment. Tyr(3-I) = N[C@@H](Cc1ccc(O)c(I)c1)C(=O)O; dNMe2Nal = CN[C@H](Cc1ccc2ccccc2c1)C(=O)O; 2Nal = N[C@@H](Cc1ccc2ccccc2c1)C(=O)O; d2Nal = N[C@H](Cc1ccc2ccccc2c1)C(=O)O; Acetyl(4-pyridyl) = O=C(Cc1ccncc1)*; d(hPhe) = N[C@H](CCc1ccccc1)C(=O)O; dPhg = N[C@@H](C(=O)O)c1ccccc1; NHPhenethyl = c1ccc(CCN*)cc1; dNle = CCCC[C@@H](N)C(=O)O; dOrn = NCCC[C@@H](N)C(=O)O; Ac6c = NC1(C(=O)O)CCCCC1; Inp = O=C(O)C1CCNCC1; Ava = NCCCCC(=O)O

The molecules below were run against rat pituitary cells (Rattus norvegicus, UniProt O08725). Settings: read-out: PIT Cell EC50; Table III, formula IV compounds; GH release, 15 min incubation.
rat pituitary cells, sequence (O08725 whole entry, the tested form may be a part): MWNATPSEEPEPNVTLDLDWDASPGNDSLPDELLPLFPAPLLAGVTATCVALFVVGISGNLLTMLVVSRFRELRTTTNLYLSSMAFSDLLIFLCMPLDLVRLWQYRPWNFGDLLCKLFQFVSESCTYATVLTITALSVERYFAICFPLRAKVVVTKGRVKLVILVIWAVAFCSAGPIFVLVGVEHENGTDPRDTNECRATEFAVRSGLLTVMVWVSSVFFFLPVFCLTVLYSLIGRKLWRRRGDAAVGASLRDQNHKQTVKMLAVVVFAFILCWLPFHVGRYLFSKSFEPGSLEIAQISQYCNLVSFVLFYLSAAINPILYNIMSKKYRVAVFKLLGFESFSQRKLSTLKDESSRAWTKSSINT
Description: Pituitaries from ten rats were removed, the posterior pituitary discarded and the anterior pituitary placed in Hanks' Balanced Salt Solution (HBSS: without calcium chloride, w/o magnesium chloride, w/o magnesium sulfate; Gibco) containing 20 mM HEPES (Gibco) and 100 U/ml penicillin streptomycin (PS: JRH Biosciences). Under sterile conditions, pituitaries were rinsed twice then minced into small fragments with a razor blade. […] After the incubation, fragments were triturated to yield small clumps and single cells. The cells were centrifuged 1000× g for 5 min, resuspended, counted and plated at a final cell concentration of 100,000 cells/ml. Incubation media was DME low glucose media w/NaHCO3 (Gibco) containing 20 mM hepes, 100 U/ml PS and 10% FBS (Hyclone A-111-L). Cells were plated at 0.5 ml per well in 48 well plates (Falcon) and incubated at 37° C. in 5% C02 for three days. For challenges to determine release of other pituitary hormones cells were plated at 200,000 cells per ml with 2 ml per well of a Swell plate (Corning). Challenge: A (inip)bbFK-NH2 stock (or other GHRP) concentration of 1 mM was made in DMSO and diluted with warmed media approximately 30 min prior to use. The highest concentration of DMSO in media was 0.1%. Stock solutions (1 mM) of rat GHRH, somatostatin (Sigma) and GHRP antagonist HwkWfK were made fresh in media and diluted appropriately. The media used in all challenges and washing steps was DME low glucose with 20 mM Hepes, 100 U/ml PS, 10% FBS. Media was warmed to 37° C. and gassed by placing it into the incubator prior to challenge. On day three, the media was discarded and fresh media (approximately 1 ml) added for the first of three washes. After the last wash, the plate was placed back in the incubator for a 15 min pre-incubation. Then cells were washed 2× (with warmed and gassed media) and fresh 0.5 ml media were added for the second 15 min. pre-incubation. After the second pre-incubation cells were washed 2× as above and 0.5 ml of control and test solutions were added for a final 15 min incubation. After this incubation, the media were removed for subsequent GH ELISA. GH ELISA: A two-site ELISA was used to determine rat GH concentration in the media. […] After blocking and washing, standard (rat GH reference preparation: Parlow) and challenge media is diluted 1:20 prior to GH assay were added for a 1 hr room temperature incubation. STATISTICS: The mean for each group was determined and analyzed by one-way analysis of variance with a post-hoc Student-Newman-Keuls. Significance is defined as P<0.05. The EC50 was calculated using a 4-parameter curve-fit program (Kaleidagraph). Three to four independent EC50s were used to derive the mean and SEM. RIA of pituitary hormones: LH, FSH, TSH, and Prolactin were determined with commercially available kits from Amersham, and ACTH levels were determined by a RIA kit from ICN. CALCIUM FLUX EXPERIMENT: Pituitary cells were plated on fibronectin (Collaborative Research) coated two-chambered slide wells (Nunc). After four days in monolayer culture cells were rinsed three times with HBSS (Gibco) in 1% BSA and 15 mM HEPES and then incubated for 30 min at 37° C. with 5 μM Indo-1 AM (Molecular Probes, Eugene) in HBSS also containing 1% pluronic F127 (Molecular Probes). The cells were rinsed once and fresh media added for RT incubation. […] C^++ flux was imaged with a Meridian ACAS 570 using stage scanning at 21 second intervals.

Question: How did the pEC50 turn out when `CN(C)C(=O)C(Cc1ccccc1)NC(=O)[C@@H](Cc1ccc2ccccc2c1)NC(=O)[C@@H](Cc1ccc2ccccc2c1)NC(=O)C1CCNCC1` (single isomer, unassigned) [(inip) b b f dam] was run?
Answer: 7.92

Question: With `C[C@@H](NC(=O)CCCCN)C(=O)N[C@H](Cc1ccc2ccccc2c1)C(=O)N[C@@H](Cc1ccccc1)C(=O)N[C@@H](CCCCN)C(N)=O` [(Ava) a b F K amide] (H-[Ava][dA][d2Nal]FK-NH2) as the molecule, how does the pEC50 read?
Answer: < 6.52

Question: `C[C@@H](NC(=O)[C@@H](Cc1ccc2ccccc2c1)NC(=O)CCCCN)C(=O)N[C@@H](Cc1ccccc1)C(=O)N[C@@H](CCCCN)C(N)=O` [(Ava) b a F K amide] (H-[Ava][d2Nal][dA]FK-NH2) was tested. Which pEC50 did it give?
Answer: < 6.52

Question: How did the pEC50 turn out when `NCCCCC(=O)N[C@H](Cc1ccc2ccccc2c1)C(=O)N[C@H](Cc1ccc2ccccc2c1)C(=O)N[C@@H](C(=O)N[C@@H](CCCCN)C(N)=O)c1ccccc1` [(Ava) b b (pG) K amide] (H-[Ava][d2Nal][d2Nal][dPhg]K-NH2) was run?
Answer: < 7.00

Question: How did the pEC50 turn out when `C[C@H](NC(=O)[C@@H](Cc1ccc2ccccc2c1)NC(=O)[C@@H](Cc1ccc2ccccc2c1)NC(=O)CCCCN)C(=O)N[C@@H](CCCCN)C(N)=O` [(Ava) b b A K amide] (H-[Ava][d2Nal][d2Nal]AK-NH2) was run?
Answer: < 6.82

Question: How did the pEC50 turn out when `NCCCC[C@H](NC(=O)[C@H](Cc1ccccc1)NC(=O)[C@@H](Cc1ccc2ccccc2c1)NC(=O)[C@@H](Cc1ccc2ccccc2c1)NC(=O)C1CCNCC1)C(=O)N[C@@H](Cc1ccc(O)c(I)c1)C(N)=O` [(inip) b b F K Y(I) amide] (H-[Inp][d2Nal][d2Nal]FK[Tyr(3-I)]-NH2) was run?
Answer: 9.16

Question: With `NCCCC[C@H](NC(=O)[C@H](Cc1ccc(O)cc1)NC(=O)[C@@H](Cc1ccc2ccccc2c1)NC(=O)[C@@H](Cc1ccc2ccccc2c1)NC(=O)C1CCNCC1)C(N)=O` [(inip) b b Y K amide] (H-[Inp][d2Nal][d2Nal]YK-NH2) as the molecule, how does the pEC50 read?
Answer: 9.70

Question: `CNC(=O)[C@@H](Cc1ccccc1)NC(=O)[C@@H](Cc1ccc2ccccc2c1)NC(=O)[C@@H](Cc1ccc2ccccc2c1)NC(=O)C1CCNCC1` [(inip) b b f mam] (H-[Inp][d2Nal][d2Nal][dF]-NHMe) was tested. Which pEC50 did it give?
Answer: 8.15

Question: `CN(C)C(=O)[C@H](Cc1ccccc1)NC(=O)[C@@H](Cc1ccc2ccccc2c1)NC(=O)[C@@H](Cc1ccc2ccccc2c1)N(C)C(=O)C1CCNCC1` [(inip) nmb b F dam] (H-[Inp][dNMe2Nal][d2Nal]F-NMe2) was tested. Which pEC50 did it give?
Answer: 8.22

Question: `CN(C(=O)C1CCNCC1)[C@H](Cc1ccc2ccccc2c1)C(=O)N(C)[C@H](Cc1ccc2ccccc2c1)C(=O)N[C@@H](Cc1ccccc1)C(=O)N[C@@H](CCCCN)C(N)=O` [(inip) nmb nmb F K amide] (H-[Inp][dNMe2Nal][dNMe2Nal]FK-NH2) was tested. Which pEC50 did it give?
Answer: 8.85

Question: With `NCCCC[C@H](NC(=O)[C@H](Cc1ccccc1)NC(=O)[C@@H](Cc1ccc2ccccc2c1)NC(=O)[C@@H](Cc1ccc2ccccc2c1)NC(=O)Cc1ccncc1)C(N)=O` [(pac) b b F K amide] ({Acetyl(4-pyridyl)}-[d2Nal][d2Nal]FK-NH2) as the molecule, how does the pEC50 read?
Answer: 7.00

Same assay, conditions: read-out: PIT Cell EC50; Table IV, formula III compounds; GH release, 15 min incubation

Question: `NCCCCC(=O)N[C@H](Cc1ccc2ccccc2c1)C(=O)N[C@@H](Cc1ccccc1)C(=O)N[C@@H](CCCCN)C(N)=O` [(Ava) b F K amide] (H-[Ava][d2Nal]FK-NH2) was tested. Which pEC50 did it give?
Answer: < 6.52

Question: How did the pEC50 turn out when `NCCCCC(=O)N[C@H](Cc1ccc2ccccc2c1)C(=O)N[C@H](Cc1ccc2ccccc2c1)C(=O)NCCc1ccccc1` [(Ava) b b fem] (H-[Ava]-[d2Nal]-[d2Nal]-NHPhenethyl) was run?
Answer: < 6.70

Question: How did the pEC50 turn out when `NC(=O)[C@H](Cc1ccccc1)NC(=O)C1(NC(=O)[C@@H](Cc2ccc3ccccc3c2)NC(=O)C2CCNCC2)CCCCC1` [(inip) b Abx F amide] (H-[Inp][d2Nal][Ac6c]F-NH2) was run?
Answer: < 7.00

Question: How did the pEC50 turn out when `O=C(N[C@H](Cc1ccc2ccccc2c1)C(=O)N[C@H](Cc1ccc2ccccc2c1)C(=O)N[C@@H](Cc1ccc(O)c(I)c1)C(=O)O)C1CCNCC1` [(inip) b b Y(I) acid, (inip)-DβNal-DβNal-(3-I-Tyr)] (H-[Inp][d2Nal][d2Nal][Tyr(3-I)]-OH) was run?
Answer: 10.00

Question: `NC1CCN(C(=O)[C@@H](Cc2ccc3ccccc3c2)NC(=O)[C@@H](Cc2ccc3ccccc3c2)NC(=O)C2CCNCC2)CC1` [(inip) b b apc] was tested. Which pEC50 did it give?
Answer: 7.41

Question: `O=C(N[C@H](Cc1ccc2ccccc2c1)C(=O)N[C@H](Cc1ccc2ccccc2c1)C(=O)NCCc1ccccc1)C1CCNCC1` [(inip) b b fem, (inip)-DβNal-DβNal-(N-2-phenylethyl) amide] (H-[Inp]-[d2Nal]-[d2Nal]-NHPhenethyl) was tested. Which pEC50 did it give?
Answer: 8.69

Question: `NCCC[C@@H](NC(=O)[C@@H](Cc1ccc2ccccc2c1)NC(=O)[C@@H](Cc1ccc2ccccc2c1)NC(=O)C1CCNCC1)C(N)=O` [(inip) b b o amide] (H-[Inp][d2Nal][d2Nal][dOrn]-NH2) was tested. Which pEC50 did it give?
Answer: 8.00

Question: `NCCCCCNC(=O)[C@@H](Cc1ccc2ccccc2c1)NC(=O)[C@@H](Cc1ccc2ccccc2c1)NC(=O)C1CCNCC1` [(inip) b b pam] was tested. Which pEC50 did it give?
Answer: 7.37

Question: How did the pEC50 turn out when `NC(=O)[C@H](Cc1ccccc1)NC(=O)[C@@H](Cc1ccccc1)NC(=O)[C@@H](Cc1ccc2ccccc2c1)NC(=O)C1CCNCC1` [(inip) b f F amide] (H-[Inp][d2Nal][dF]F-NH2) was run?
Answer: 7.10

Question: With `CCCC[C@@H](NC(=O)[C@@H](Cc1ccc2ccccc2c1)NC(=O)C1CCNCC1)C(=O)N[C@@H](Cc1ccccc1)C(N)=O` [(inip) b nl F amide] (H-[Inp][d2Nal][dNle]F-NH2) as the molecule, how does the pEC50 read?
Answer: 7.14

Question: `NC(=O)[C@H](Cc1ccccc1)NC(=O)[C@@H](Cc1ccc2ccccc2c1)NC(=O)[C@@H](CCc1ccccc1)NC(=O)C1CCNCC1` [(inip) hf b F amide] (H-[Inp][d(hPhe)][d2Nal]F-NH2) was tested. Which pEC50 did it give?
Answer: 7.57

Question: With `NC(=O)[C@H](Cc1ccccc1)NC(=O)[C@@H](CCc1ccccc1)NC(=O)[C@@H](CCc1ccccc1)NC(=O)C1CCNCC1` [(inip) hf hf F amide] (H-[Inp][d(hPhe)][d(hPhe)]F-NH2) as the molecule, how does the pEC50 read?
Answer: < 6.00

Question: `CCCC[C@@H](NC(=O)C1CCNCC1)C(=O)N[C@H](Cc1ccc2ccccc2c1)C(=O)N[C@@H](Cc1ccccc1)C(N)=O` [(inip) nl b F amide] (H-[Inp][dNle][d2Nal]F-NH2) was tested. Which pEC50 did it give?
Answer: 7.00

Same assay, conditions: read-out: PIT Cell EC50; Table V, formula II compounds; GH release, 15 min incubation

Question: With `NCCCCC(=O)N[C@H](Cc1ccc2ccccc2c1)C(=O)N[C@@H](CO)Cc1ccc2ccccc2c1` [(Ava) b bol] as the molecule, how does the pEC50 read?
Answer: 6.72

Question: With `O=C(N[C@H](Cc1ccc2ccccc2c1)C(=O)N[C@H](CO)Cc1ccc2ccccc2c1)C1CCNCC1` [(inip) b Bol] as the molecule, how does the pEC50 read?
Answer: 7.00

Question: With `O=C(N[C@H](Cc1ccc2ccccc2c1)C(=O)N[C@H](Cc1ccc2ccccc2c1)C(=O)O)C1CCNCC1` [(inip) b b acid] (H-[Inp]-[d2Nal]-[d2Nal]-OH) as the molecule, how does the pEC50 read?
Answer: 7.09

Question: How did the pEC50 turn out when `NC(=O)[C@@H](Cc1ccc2ccccc2c1)NC(=O)[C@@H](Cc1ccc2ccccc2c1)NC(=O)C1CCNCC1` [(inip) b b amide] (H-[Inp]-[d2Nal]-[d2Nal]-NH2) was run?
Answer: 7.75

Question: `CC(=O)NC[C@@H](Cc1ccc2ccccc2c1)N(C)C(=O)[C@@H](Cc1ccc2ccccc2c1)NC(=O)C1CCNCC1` [(inip) b mbm Ac] was tested. Which pEC50 did it give?
Answer: 7.05

Question: With `CN(C(=O)[C@@H](Cc1ccc2ccccc2c1)NC(=O)C1CCNCC1)[C@@H](CN=[N+]=[N-])Cc1ccc2ccccc2c1` [(inip) b miz] as the molecule, how does the pEC50 read?
Answer: 7.92

Same assay, conditions: read-out: PIT Cell EC50; Table VI, retroinverso compounds of formula V; GH release, 15 min incubation

Question: With `NCCCCC(=O)N[C@H](Cc1ccccc1)C(=O)N[C@@H](Cc1ccc2ccccc2c1)C(=O)N[C@@H](Cc1ccc2ccccc2c1)C(=O)N[C@@H](CCCCN)C(N)=O` [(Ava) f B B K amide, (5-Aminovaleryl)-DPhe-βNal-βNal-Lys-amide] (H-[Ava][dF][2Nal][2Nal]K-NH2) as the molecule, how does the pEC50 read?
Answer: 7.44

Question: With `O=C(N[C@@H](Cc1ccc2ccccc2c1)C(=O)N[C@@H](Cc1ccc2ccccc2c1)C(=O)NC1CCNCC1)C1CCNCC1` [(inip) B B api] as the molecule, how does the pEC50 read?
Answer: 7.02

Same assay, conditions: read-out: mean EC50; mean ± SE of independent EC50s

Question: How did the pEC50 turn out when `NCCCNC(=O)[C@H](Cc1ccc2ccccc2c1)NC(=O)[C@H](Cc1ccc2ccccc2c1)NC(=O)[C@@H](Cc1ccc2ccccc2c1)NC(=O)CCCN` [(Ab) b B B ram] was run?
Answer: 8.70
